In PMC12020424, “Identification and Validation of Cyclic Peptides with Mucin-Selective, Location-Specific Binding in the Gastrointestinal Tract” (ACS Nano, 2025):
Bridge positions count the residues as written; N and C are the ends. Ends that are not written are not given here.

Key:
[1] = test system: MUC2-containing intestinal tissue (jejunal); assay: Ex vivo fluorescent binding to small intestine tissue; parameters: species or system porcine; conditions: MUC2-selective peptides to small intestine
Source text: (§1) After identifying the peptide hits for each mucin, we tested their binding in an ex vivo setting (Figure S1), evaluating their interaction with mucin-containing porcine tissue and semiquantitatively representing it through fluorescent imaging (Figure 3a). The cyclic peptides were synthesized and conjugated to a fluorophore, Alexa Fluor 647 (AF647), at the N-terminus to allow fluorescent imaging to be used to semiquantitatively measure the peptides’ ex vivo tissue binding, compared to free AF647 and AF647 conjugated to wheat germ agglutinin (WGA), a known lectin for glycoproteins.[40] […] Porcine GI tissue was used due to its similarity in mucin expression compared to human GI tissue and its capacity to source large surface areas of tissue for experiments.[41],[42] Representative IVIS images are shown in Figure 3b-e, where the first four columns represent the four identified peptides (M2.1–M2.4 in Figure 3b,c, M5.1–M5.4 in Figure 3d,e), the fifth column represents WGA-AF647, and the sixth column represents AF647. The “score” results for the peptide ligands are presented in Figure 3f,g for the mucins of interest, with Tables S2–S5 and Figure S3 detailing results for the other tissues (the equation for calculating the “score” is found in the Materials and Methodssection). […] We also examined selectivity by incubating peptides on nontarget tissues. Figure 3h,i depicts the “selectivity” results for the MUC2-selective and MUC5AC-selective peptides, respectively. Selectivity was calculated by determining the ratio of the “score” for a particular mucin to the sum of the “scores” for all mucins (see the Materials and Methods section for the equation used).
(§2) The top-performing hits from phage display were tested on ex vivo segments of porcine mucin-containing tissues (jejunal, stomach, and esophageal tissues) obtained from local abattoirs or laboratory-maintained pigs. Tissue was used either immediately after acquisition or after storage at −80 °C; tissue was used at most 1 week after acquisition and storage at −80 °C. After acquisition and equilibration to room temperature, the tissue was washed twice with 25 mL (each) of cold 1× PBS to remove undigested food and other debris. After washing and cleaning, the tissue was mounted between two magnetic plates with holes corresponding to a 48-well plate, as previously described,[72] such that the luminal side of the tissue was facing up (Figure S1). After the tissue was mounted, the amount of peptide/protein corresponding to 40 μg of AF647 was suspended in 200 μL of 1× PBS and added to the wells created by the magnetic plates. This was done 3× for each formulation to perform the experiment in triplicate. In addition, plain 1× PBS was added to one well to serve as the background measurement. After the peptides were added, the plate setup was covered with aluminum foil and allowed to incubate for 1 h at room temperature with gentle agitation (50 rpm). After incubation, the nonbinding peptides were removed by pouring out the solutions onto a clean paper towel, and the setup was washed three times by adding 200 μL of 1× PBS to each well and gently agitating the setup for 30 s before removing the washing solution. After washing was complete, fluorescence imaging was performed using an IVIS Spectrum fluorescent imaging system (PerkinElmer), with an automatically calculated exposure time (usually ∼1 s), a 20 cm × 20 cm field of view, and an excitation/emission of 640/680 nm, respectively. The imaging results were analyzed using Living Image software to calculate the total fluorescence intensity for each well, and the results for each hit or control were averaged across different wells. The negative control used was unconjugated AF647, while the positive control was WGA-AF647, since WGA is a known lectin that binds glycoproteins.
(§3) To better account for tissue-to-tissue variability, the results for each trial were reported as scores rather than using the raw fluorescence intensity. […]

[2] = test system: MUC5AC-containing stomach tissue; assay: Ex vivo fluorescent binding to stomach tissue; parameters: species or system porcine; conditions: MUC5AC-selective peptides to stomach
Source text: as §1
as §2, with “After the peptides were added, the plate setup was covered with aluminum foil and allowed to incubate for 1 h at room temperature with gentle agitation (50 rpm). After incubation, the nonbinding peptides were removed by pouring out the solutions onto a clean paper towel, and the setup was washed three times by adding 200 μL of 1× PBS to each well and gently agitating the setup for 30 s before removing the washing solution.” left out, “The negative control used was unconjugated AF647, while the positive control was WGA-AF647, since WGA is a known lectin that binds glycoproteins.” left out
as §3

small intestine = assay: In vivo gastrointestinal localization, small intestine; parameters: species or system Sprague–Dawley rats; conditions: AF647 conjugate, oral gavage, 1 mg/kg, fasted rats, n = 6, 6 h, segment fluorescence / sum of esophagus, stomach
Description: To measure the gastrointestinal localization of these peptides in vivo, peptides M2.3 and M5.2 with conjugated AF647 dye (as a model drug) were administered via oral gavage to fasted Sprague–Dawley rats, along with unconjugated AF647 dye and WGA-AF647. After 6 h, localization was measured by using fluorescent imaging on the rats’ GI tracts. The major results of the total binding fluorescence and organ-specific binding fluorescence for M2.3, as well as the total binding fluorescence and organ-specific binding fluorescence for M5.2, along with results for the AF647 and WGA-AF647 in each case, are shown in Figure 4, with more detailed results found in Figure S9. All results have been adjusted by subtracting the fluorescence from tissue from untreated rats. […]
All animal studies were carried out under the supervision of MIT’s Division of Comparative Medicine and in compliance with NIH’s Principles of Laboratory Animal Care, following the guidelines set forth by MIT’s Committee on Animal Care. Sprague–Dawley rats (200–300 g, a mix of male and female) were obtained from Charles River Laboratories and allowed to acclimate to their new conditions for 1 week, following which their diet was adjusted to an alfalfa-free diet (AIN-93M, TestDiet) for at least 7 days prior to the study in order to reduce background fluorescence. […]

MUC5AC [3] = biological target: T1, MUC5AC (Homo sapiens, UniProt P98088); assay: Phage display (CX7C library) against MUC5AC, Sanger sequencing; assay type: binding; conditions: MUC5AC phage screening, third round of panning, 16 sequenced candidates
Description: For each mucin of interest, 5 μg of mucin protein was diluted in 150 μL of Tris-buffered saline (TBS) and added to 2 wells of a microtiter plate. The plate was left overnight in a humidified, sealed container with agitation at 50 rpm. After the overnight mucin coating, the solution was poured out, and 300 μL of blocking buffer was added to the wells for 1 h. After the 1 h waiting period, the blocking buffer was poured out, and the wells were washed three times with 300 μL of Tris-buffered saline with TBST (TBS + 0.1% (v/v) Tween-20) to remove nonspecific binding on the mucin layer coating. Next, 5 μL of the C7C library diluted with 95 μL of TBST was added to each blocked well and placed on shaker for 45 min, before pouring out the nonbinding phage and washing the plate ten times with TBST. A 0.2 M glycine-HCl elution buffer (pH 2.2, 100 μL) was added to each well and placed on a shaker for 20 min to release the mucin-layer binding peptides on the plate as unamplified eluate, with the pH neutralized by 30 μL of neutralization buffer (1 M Tris-HCl, pH 9).
E. coli liquid cultures were prepared by adding E. coli cells to 20 mL of LB media and placing them in shaking conditions at 37 °C and 250 rpm for 2 h and 45 min. The unamplified eluate (1 μL of which was saved for titering) was added to the E. coli cultures under the same conditions for 4 h and 45 min for amplification. […]

MUC5AC [4] = biological target: T1, MUC5AC; assay: Phage ELISA on MUC5AC; assay type: binding; conditions: phage clones displaying the peptide, 10^7 PFU/μL, MUC5AC-coated plate, anti-M13/HRP, TMB, 450 nm, blank subtracted, three wells; vs random library and insertless phage
Source text: We next sought to validate the binding efficiency of these identified phage clones. We tested phage clones displaying peptides M2.1, M2.2, M2.3, and M2.4 for binding to MUC2, and phage clones displaying peptides M5.1, M5.2, M5.3, and M5.4 for binding to MUC5AC. We utilized a bacteriophage enzyme-linked immunosorbent assay to test the binding of the peptide hits to the specific target mucins, MUC2 and MUC5AC (Figure 2d). The spectrophotometer reported absorbance values at 450 nm. The intensity of the absorbance signal is proportional to the amount of peptide-mucin binding present in each sample. The negative controls (library samples and insertless samples) served as references for nonspecific binding.
First, mucin was coated onto the surface of a plastic plate overnight using the same process as that performed for the original phage display. The next morning, three wells of each phage clone were prepared, with each phage solution having a titer of 10^7 PFU/μL to ensure a fair comparison between the clones. […]
However, instead of eluting the bound phage, 100 μL of 1:2000 anti-M13/HRP mouse monoclonal antibody was added to each well, and the antibody was allowed to incubate with the wells for 30 min. […] The resulting solutions were analyzed by absorbance spectroscopy at a wavelength of 450 nm to determine the relative amount of phage present in each well.

[5] = scaled between free AF647 (0) and WGA-AF647 (1), mean across trials n = 3

Substance | Overall nanoparticle “score” [1, 5] | Selectivity ([1]; score for MUC2 tissue / sum of scores for all mucins, n = 3) | Overall nanoparticle “score” [2, 5] | Selectivity ([2]; score for MUC5AC tissue / sum of scores for all mucins, n = 3) | selectivity for the small intestine vs controls (small intestine) | % Prevalence (MUC5AC [3]) [%] | phage ELISA binding vs negative controls (MUC5AC [4])
Alexa Fluor 647-conjugated wheat germ agglutinin [WGA] | 1 | 0.333 | 1 | 0.333 | did not demonstrate a significant improvement over the free dye | – | –
CSSASVEWC (disulfide 1-9 (inferred)) [Peptide M5.4, CX7C cyclic peptide hit for MUC5AC; AF647 conjugated at N-terminus in ex vivo tests] | – | – | – | – | – | 6.25 | significantly greater binding to MUC5AC than the random library and insertless phage
